Reference: a melting point compilation (Tetko et al.; mined from patent text by program, amines drawn as free bases though some values may be those of a salt)

Row | melting point [°C] | SMILES
1 | 245 to 246 | Cc1ccc2cc(C(=O)NCCSC(c3ccccc3)(c3ccccc3)c3ccccc3)[nH]c2c1NS(=O)(=O)c1cccs1
2 | 228 to 229 | COc1cc(Nc2c(C#N)cnc3cc(Br)sc23)c(Cl)cc1Cl
3 | 156 to 159 | O=C(O)c1c[nH]c(Sc2ccc(Cl)c(Cl)c2)c1
4 | 77.5 to 78.5 | COc1ccccc1Cc1ccc(N)c(C#N)c1
5 | 140 to 142 | CC(=C1SC(=O)NC1=O)c1ccc(OCCOc2c(-c3ccc(F)c(F)c3)n(C)c3cc(Cl)ccc3c2=O)c(Cl)c1
6 | 116 to 118 | CCCCCS(=O)(=O)NC(=O)/C=C/c1ccc(OCCCOC)cc1Oc1ncc(C(F)(F)F)cc1Cl
7 | 134 to 136 | Cc1ccc(-c2cccc3c2CC(CNC(=O)OCc2ccccc2)O3)cc1 (stereo not drawn)
8 | 143 to 145 | COc1ccc(C=C2c3ccccc3C(=NOCC(=O)N3CCC(CO[N+](=O)[O-])CC3)c3ccccc32)cc1O
9 | 210 | O=Cc1cc2cc(OCc3ccccc3)c(F)cc2nc1I
10 | 210 | O=C(Nc1ccc2[nH]ncc2c1)O[C@H](c1ccc(Cl)c(Cl)c1)[C@H]1CCCCN1
11 | 171 to 173 | Cc1ccc(Cl)cc1N1C(=O)C(=O)N(C)C1=S
12 | 152 to 156 | CC(C)(N)CCOc1ccc(C2=NNC(=O)CC2)cc1Cl
13 | > 215 | COc1cc2ncc(C#N)c(Nc3ccc(F)c(Cl)c3)c2cc1NC(=O)C=CCN1CCC(O)CC1
14 | 171 to 173 | CCCc1c(OCCCS(=O)(=O)c2ccc(C(=O)NCC(=O)O)cc2)ccc(C(C)=O)c1O
15 | 235 to 236 | Cc1nc(-n2cnn(CCOCc3ccc(F)cc3)c2=O)sc1C(=O)NCc1cccnc1
16 | 109 to 111 | Cc1c(Cl)c(Oc2c(Cl)cc(C(F)(F)F)cc2Cl)nn1C(=O)NC(C)C
17 | 117 to 120 | COc1ccc(Sc2nccn2C)c([N+](=O)[O-])c1
18 | 62 to 64 | CN1CCC(C(=O)Nc2ccc(CN(C)C3CCOCC3)cc2)=Cc2cc(Br)ccc21
19 | 165 to 166 | COc1cc(C(=O)c2csc(Nc3ccc(Cl)cc3)n2)cc(OC)c1OC
20 | 184 to 190 | CCn1c2ccc(C(C)=O)cc2c2cc(C(C)=O)ccc21

Row | melting point [°C] | SMILES
21 | 187 to 188 | CC(C)S(=O)(=O)n1c(N)nc2ccc(C(=C(Cl)Cl)c3ccccc3)cc21
22 | 78 to 87 | COc1cc2c(cc1Nc1ncc(Cl)c(Nc3ccccc3S(=O)(=O)N(C)C)n1)CCN(CCCN1CCOCC1)C(=O)C2
23 | 206 to 207 | O=C(NCCCn1ccc2cc(NC(=O)c3nc4ccc(Cl)cc4n3Cc3ccccc3)ccc21)c1cccnc1
24 | 68 to 75 | CN(C)Cc1cc(-c2c(-c3ccc(F)cc3)nn3c(Cl)cccc23)nc(NC2CCCC2)n1
25 | 175 to 178 | COC(=O)C=Cc1cccc2c3c(n(C)c12)CCN(Cc1nc[nH]c1C)C3=O
26 | 172 to 174 | COc1cccc(OC)c1C(=O)NC(=O)Nc1ccc(Sc2ccc(Cl)cc2)nc1
27 | 157 to 159 | CS(=O)(=O)c1ccc(-c2cnn(-c3ccc(F)c(F)c3)c(=O)c2Cc2ccc(F)cc2)cc1
28 | 124 to 127 | S=C(NCc1ccc(Cl)cc1Cl)N1CCc2c([nH]c3ccccc23)C1c1ccc2c(c1)OCO2 (stereo not drawn)
29 | 125 to 127 | CCOC(=O)c1ccc(NC(=O)c2cccnc2)cc1
30 | 305 to 310 | COc1ccc2c(c1)C(=O)N(c1ccc3[nH]c(=O)ccc3c1)C2
31 | 100 | COCCOC(=O)c1ccccc1Nc1nc(Nc2cc3c(cc2OC)CCN(CC(C)O)CC3)ncc1Cl (stereo not drawn)
32 | 169 to 170 | O=C(O)c1c2ccccc2nc2ccc3ccccc3c12
33 | 234 to 236 | CC(=O)NC1=C(C#N)C(c2cccc([N+](=O)[O-])c2)=C2C=Cc3ccccc3C2O1 (stereo not drawn)
34 | 92 to 95 | CCCCOc1cc(CCS(=O)(=O)NC(=O)OCc2ccccc2)n(Cc2ccc(Cl)cc2Cl)n1
35 | 235 to 242 | Cc1cc(-n2ccc(=O)[nH]c2=O)cc(Cl)c1S(=O)(=O)c1ccc(Cl)cc1
36 | 211 to 212 | CNC(=O)c1cccc(NC(=O)Cc2ccccc2Cl)c1
37 | 148 to 150 | CC(C)Oc1ccc(-n2c(C(=O)O)c(Cl)c3cc(Oc4ccc(C(F)(F)F)cc4)ccc32)cc1
38 | 178 to 182 | CC1(C)C=Cc2cc(-c3nnnn3CCN3C(=O)c4ccccc4C3=O)ccc2O1
39 | 147 to 150 | COC(=O)c1ccc(N)cn1
40 | 174 to 176 | COc1ccc(S(=O)(=O)Nc2cccnc2Nc2ccc(Oc3ccccc3)cc2)cc1

Second part, the compound before the results:

Row | SMILES | melting point [°C]
41 | O[C@@H]1CNCC[C@H]1Oc1ccc2c(c1)CCCC2 (relative stereo) | 125 to 127
42 | CC1(C)C2CCC1(CS(=O)(=O)NCCC1CCc3ccccc31)C(=O)C2 (stereo not drawn) | 52 to 70
43 | Cc1cc(C)c2cnc(=O)n(CCN(C)C)c2n1 | 137 to 139
44 | CCOC(=O)c1cnn(C)c1C(=O)Nc1ccn2nc(N3CCCC3)nc2c1 | 233 to 234
45 | C[C@@H]1C(=O)C[C@H]2C[C@@H]1OO[C@@]2(C)/C=C/c1cc(C(F)(F)F)nc2c(Cl)cc(Cl)cc12 | 196
46 | CC(=O)OCC(=O)C1(O)C(C)CC2C3CC(C)C4=CC(=O)CCC4(C)C3=CCC21C (stereo not drawn) | 197 to 199
47 | Cc1ccc2c(c1)NC(=O)c1cscc1O2 | 209 to 213
48 | CCOC(=O)c1ccc(-c2cccc(-c3ccc4c(c3)C(C)(C)CCC4(C)C)c2O)cc1 | 121
49 | CC(C)(C)Sc1c(C#N)nn(-c2c(Cl)cc(C(F)(F)F)cc2Cl)c1N | 196 to 198
50 | CN(C)C=C1CC(=O)c2ccccc2NC1=O | 203 to 205
51 | CCS(=O)(=O)Nn1c(=O)[nH]c2cc(C(F)(F)F)c(-n3cnnc3)cc2c1=O | 185 to 195
52 | Cc1c(C)c(Cl)c(Cl)c(Cl)c1Cl | 85 to 89
53 | c1ccc2c(c1)OCCO2 | 117 to 118
54 | O=C1C(Br)=CN=CC1Br (stereo not drawn) | 320
55 | COC(=O)C1=Cc2cc(Br)ccc2NCC1 | 143 to 145
56 | CN(C)c1nc(N(C)C)c2nnn(Cc3ccccc3F)c2n1 | 123 to 125
57 | CN1COc2c(N3CC4CCOC4(CNC(=O)OC(C)(C)C)C3)c(F)cc3c(=O)c(C(=O)O)cn1c23 (stereo not drawn) | 176
58 | COc1cc(I)nc(N)n1 | 142 to 144
59 | CCNC(=NS(=O)(=O)c1ccc(N)cc1)N1CC2(C=N1)CCCC2 | 141 to 142
60 | O=S(=O)(c1ccc(Br)cc1)N1CCC2(C=Cc3ccccc32)CC1 | 177 to 178
61 | CC(N1C(=O)C(=O)N(c2ccc(F)cc2F)C1=S)C(C)(C)C (stereo not drawn) | 155 to 156
62 | CN1C(=O)CCC2(C)C3CCC4(C)C(OCC(N)=O)CCC4C3CCC12 (stereo not drawn) | 222 to 225
63 | COC(=O)c1cc(S(=O)(=O)Cl)cc(C(=O)OC)c1[N+](=O)[O-] | 124 to 125
64 | CN1CCNCC(NC(=O)c2n[nH]c3ccccc23)C1 (stereo not drawn) | 163 to 166
65 | CC(=O)SCC(C(=O)NC(Cc1ccc(O)c(O)c1)C(=O)O)C(F)(F)F (stereo not drawn) | 175 to 184
66 | CCCCCCCCCCCCS(=O)c1c(O)cc(C)oc1=O (stereo not drawn) | 80
67 | CCN(CC)c1ccc(C2(c3ccc(N(CC)CC)cc3N(CC)CC)OC(=O)c3c(Cl)c(Cl)c(Cl)c(Cl)c32)cc1 (stereo not drawn) | 196 to 197
68 | Nc1cccc(C(CC2CCCC2)C(=O)Nc2nccs2)c1 (stereo not drawn) | 158 to 160
